In patent US11939361B2, “Compositions of peptide inhibitors of Interleukin-23 receptor” (Janssen Pharmaceutica NV, priority 2020, dated 2024):

How the values were obtained:
[1] = Solubility of acetate form of SEQ ID NO: 1 in various media; assay type: physicochemical
Procedure: An acetate form of SEQ ID NO: 1 prepared according to Example 1 was evaluated for solubility under various conditions.

[2] = Rat PK Study 2: effect of NaC10 concentration, IC injection; assay type: in vivo, rats; details: peptide 10 mg/Kg
Description: In this example, the effect of the concentration of NaCl0 was studied.

[3] = tested on: IL-23-induced IL-17A secretion; assay: In vitro rat whole blood assay of IL-23-induced IL-17A secretion; assay type: cell-based; details: as quoted in Example 12
[4] = Storage of phosphate buffered solution; assay type: physicochemical; details: 0.33-33 mg/mL in 50 mM sodium phosphate buffer, 2-8° C.
Procedure: The resultant solution can be stored at 2-8° C. for up to 4 weeks.

[5] = Dog PK Study: single PO dose of tablets/solution; details: peptide 10 mg/Kg, NaC10 50 mg/Kg
Procedure: Poloxamer P188 was also assessed, in combination with NaCl0 with the aim of determining potential synergism. […] Control tablet cores (immediate-release) without the absorption enhancers were also manufactured and dosed as control in the study.
Following dosing of tablets, 10 mL additional water was given. The normal dry diet was returned 2 hours post-dose.

## CC(=O)NCCCC[C@@H]1NC(=O)[C@H](Cc2c[nH]c3c(C)cccc23)NC(=O)[C@H]([C@@H](C)O)NC(=O)[C@H](CC(N)=O)NC(=O)[C@@H](NC(C)=O)C(C)(C)SSC(C)(C)[C@@H](C(=O)N[C@@H](Cc2ccc(OCCN)cc2)C(=O)N[C@@H](Cc2ccc3ccccc3c2)C(=O)NC2(C(=O)N[C@@H](CCC(=O)O)C(=O)N[C@@H](CC(N)=O)C(=O)N[C@@H](Cc3cccnc3)C(=O)N(C)CC(N)=O)CCOCC2)NC1=O [Acetate Form of SEQ ID NO: 1]
[1]; 0.01 N HCl, aqueous buffer
  solubility: 95 mg/mL
[1]; 0.1 N HCl, aqueous buffer
  solubility: 780 mg/mL
[1]; 0.1 N NaOH, aqueous buffer
  solubility: > 870 mg/mL
[1]; aqueous buffer, Borate buffer pH 9
  solubility: > 220 mg/mL
[1]; aqueous buffer, Citrate buffer pH 2
  solubility: 270 mg/mL
[1]; aqueous buffer, Citrate buffer pH 5
  solubility: 6.9 mg/mL
[1]; aqueous buffer, Phosphate buffer pH 12
  solubility: > 440 mg/mL
[1]; aqueous buffer, phosphate buffer pH 7
  solubility: 7.5 mg/mL
[1]; water
  solubility: 35 mg/mL
[2]; NaC10 20 mg/Kg
  increase of systemic exposure given by NaC10: minimal
[2]; NaC10 50 mg/Kg
  absorption enhancement by NaC10: highest absorption enhancement
[2]; NaC10 100 mg/Kg or 200 mg/Kg
  oral bioavailability on increasing NaC10: did not further increase
[2]; all NaC10 concentrations tested (20, 50, 200 mg/Kg)
  effect of NaC10 on systemic exposure: increased
[3]
  IC50 values presented in Table 14: 0.10 to 0.47 ng/mL
[3]; read-out: IC50 values presented in Table 14
  IC50: 0.054 to 0.5 nM
[4]
  Storage time of solution: up to 4 weeks
[5]
  effect of NaC10 on systemic exposure, all tablets: increased
